Experiments:
Test in all cases: relative viability (nuclei count vs DMSO), 5 days (fraction); higher = more cells survive
[1] = compound: COc1cc(Nc2ncc(F)c(Nc3ccc4c(n3)NC(=O)C(C)(C)O4)n2)cc(OC)c1OC [R406] + CCNC(=O)c1noc(-c2cc(C(C)C)c(O)cc2O)c1-c1ccc(CN2CCOCC2)cc1 [Luminespib] (partner 0.01 µM)
In short: (§1)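 Lung cancer cell lines in 1536-well plates got either a single drug or a fixed anchor-drug dose together with five library-drug doses (not always all listed) in √10 steps, by pin tool, on the day after seeding. Nuclei were counted after 5 days, and relative viability is the treated-to-vehicle ratio of nuclei counts. Values are medians of duplicate plates.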

[2] = compound: COc1cc(Nc2ncc(F)c(Nc3ccc4c(n3)NC(=O)C(C)(C)O4)n2)cc(OC)c1OC [R406] + CS(=O)(=O)N1CCN(Cc2cc3nc(-c4cccc5[nH]ncc45)nc(N4CCOCC4)c3s2)CC1 [Pictilisib] (partner 1 µM)
In short: as §1

[3] = compound: O=C(/C=C/c1cccnc1)NCCCCC1CCN(C(=O)c2ccccc2)CC1 [Daporinad] + NC(=O)Nc1cc(-c2cccc(F)c2)sc1C(=O)N[C@H]1CCCNC1 [AZD7762] (partner 0.2 µM)
In short: as §1

[4] = compound: O=C(/C=C/c1cccnc1)NCCCCC1CCN(C(=O)c2ccccc2)CC1 [Daporinad] + COc1cccc2cc(-c3nc([C@H]4CC[C@H](C(=O)O)CC4)n4ncnc(N)c34)[nH]c12 [OSI-027] (partner 0.5 µM)
In short: as §1

Cell Line | relative viability ([1]; first compound 0.08 µM) | relative viability ([1]; first compound 0.253 µM) | relative viability ([1]; first compound 0.8 µM) | relative viability ([1]; first compound 2.53 µM) | relative viability ([1]; first compound 8 µM) | relative viability ([2]; first compound 0.08 µM) | relative viability ([2]; first compound 0.253 µM) | relative viability ([2]; first compound 0.8 µM) | relative viability ([2]; first compound 2.53 µM) | relative viability ([2]; first compound 8 µM) | relative viability ([3]; first compound 0.0005 µM) | relative viability ([3]; first compound 0.005 µM) | relative viability ([3]; first compound 0.01581 µM) | relative viability ([4]; first compound 0.0005 µM) | relative viability ([4]; first compound 0.001581 µM) | relative viability ([4]; first compound 0.005 µM) | relative viability ([4]; first compound 0.01581 µM) | relative viability ([3]; first compound 0.001581 µM)
NCI-H2085 | 0.437 | 0.353 | 0.525 | 0.319 | 0.279 | 0.413 | 0.505 | 0.459 | 0.482 | 0.37 | 0.879 | 1.03 | 1.1 | 0.695 | 0.773 | 0.817 | 0.852 | –
NCI-H2087 | 0.209 | 0.123 | 0.162 | – | 0.124 | 0.876 | 1.07 | 0.92 | 0.352 | 0.717 | 1.21 | 1.37 | 1.17 | 0.474 | 0.693 | 0.694 | 0.538 | 1.41
NCI-H2126 | 0.826 | 0.868 | 0.796 | 0.597 | 0.437 | 0.508 | 0.502 | 0.49 | 0.437 | 0.493 | 1.1 | 0.992 | 1.04 | 0.718 | 0.592 | 0.689 | 0.756 | 0.976
NCI-H2170 | 0.641 | 0.622 | 0.856 | 0.366 | 0.574 | 0.307 | 0.269 | 0.302 | 0.194 | 0.24 | 0.807 | 0.979 | 0.92 | 0.66 | 0.734 | 0.793 | 0.699 | 0.974
NCI-H2347 | 0.521 | 0.16 | 0.553 | 0.307 | 0.272 | 0.53 | 0.952 | 0.605 | 0.624 | 0.28 | 0.785 | 0.726 | 0.547 | 0.463 | 0.377 | 0.335 | 0.489 | 0.814
